Measured values taken from ChEMBL document CHEMBL1201862, “PubChem BioAssay data set” (2004).
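Briefly, cells in 96-well plates were exposed to five compound concentrations for 48 h, and endpoints were estimated by linear interpolation. The concentration for 50% growth inhibition is given as GI50.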 The source made the active and inactive calls. Cut-off read from the data, not from the text of the source: active = GI50 up to about 1.1 µM and inactive = higher.

Experiments:
Experiment in all cases: inhibition of tumour cell growth, NCI panel, 48 h
786-0 = system: 786-0
A498 = system: A498
A549 = system: A549
ACHN = system: ACHN
BT-549 = system: BT-549
CAKI-1 = system: CAKI-1
CCRF-CEM = system: CCRF-CEM
COLO 205 = system: COLO 205
DU-145 = system: DU-145
EKVX = system: EKVX
HCC 2998 = system: HCC 2998
HCT-116 = system: HCT-116
HCT-15 = system: HCT-15
HOP-62 = system: HOP-62
HT-29 = system: HT-29
Hs-578T = system: Hs-578T
IGROV-1 = system: IGROV-1
K562 = system: K562
KM12 = system: KM12
M14 = system: M14
MCF7 = system: MCF7
MDA-MB-231 = system: MDA-MB-231
MDA-MB-435 = system: MDA-MB-435
MDA-N = system: MDA-N
MOLT-4 = system: MOLT-4
Malme-3M = system: Malme-3M
NCI-H226 = system: NCI-H226
NCI-H23 = system: NCI-H23
NCI-H460 = system: NCI-H460
NCI-H522 = system: NCI-H522
NCI/ADR-RES = system: NCI/ADR-RES
OVCAR-3 = system: OVCAR-3
OVCAR-4 = system: OVCAR-4
OVCAR-5 = system: OVCAR-5
OVCAR-8 = system: OVCAR-8
PC-3 = system: PC-3
RXF 393 = system: RXF 393
SF-268 = system: SF-268
SF-295 = system: SF-295
SF-539 = system: SF-539
SK-MEL-2 = system: SK-MEL-2
SK-MEL-5 = system: SK-MEL-5
SK-OV-3 = system: SK-OV-3
SN12C = system: SN12C
SNB-19 = system: SNB-19
SNB-75 = system: SNB-75
SR = system: SR
T47D = system: T47D
TK-10 = system: TK-10
U-251 = system: U-251
UACC-257 = system: UACC-257
UACC-62 = system: UACC-62
UO-31 = system: UO-31
HL-60 = system: HL-60
HOP-92 = system: HOP-92
LOX IMVI = system: LOX IMVI
RPMI-8226 = system: RPMI-8226
SK-MEL-28 = system: SK-MEL-28
SW-620 = system: SW-620

Measured: GI50

O=[N+]([O-])c1ccc2nc(O)c(/C=C(\O)c3ccccc3)nc2c1
11.5 µM: HCT-15
inactive: 786-0 4.78 µM | A498 12.5 µM | A549 7.64 µM | ACHN 26.4 µM | BT-549 76.7 µM | CAKI-1 21.4 µM | CCRF-CEM > 100 µM | COLO 205 > 100 µM | DU-145 > 100 µM | EKVX 49.4 µM | HCC 2998 > 100 µM | HCT-116 13.7 µM | HOP-62 5.52 µM | HT-29 > 100 µM | Hs-578T 2.23 µM | IGROV-1 20.6 µM | K562 > 100 µM | KM12 4.81 µM | M14 > 100 µM | MCF7 13.4 µM | MDA-MB-231 3.57 µM | MDA-MB-435 35.2 µM | MDA-N 93.5 µM | MOLT-4 > 100 µM | Malme-3M 55.8 µM | NCI-H226 17.6 µM | NCI-H23 17.2 µM | NCI-H460 3.83 µM | NCI-H522 12.5 µM | NCI/ADR-RES 10 µM | OVCAR-3 27.9 µM | OVCAR-4 2.86 µM | OVCAR-5 > 100 µM | OVCAR-8 11.5 µM | PC-3 28.8 µM | RXF 393 20.6 µM | SF-268 13.9 µM | SF-295 18.8 µM | SF-539 15.3 µM | SK-MEL-2 > 100 µM | SK-MEL-5 98.2 µM | SK-OV-3 12.3 µM | SN12C 12.2 µM | SNB-19 8.09 µM | SNB-75 16 µM | SR 17.9 µM | T47D 61.7 µM | TK-10 4.13 µM | U-251 5.42 µM | UACC-257 > 100 µM | UACC-62 24.4 µM | UO-31 48.9 µM

COc1ccc(OC)c(C2Cc3cnc4nc(N)nc(N)c4c3C2)c1 (configuration not stated)
29.2 µM: HCT-15
inactive: 786-0 24.2 µM | A498 16.9 µM | A549 41.5 µM | ACHN 32.6 µM | BT-549 22.8 µM | CAKI-1 76.9 µM | CCRF-CEM 24.4 µM | COLO 205 19.5 µM | DU-145 29.2 µM | EKVX 25.6 µM | HCC 2998 26.3 µM | HCT-116 19.8 µM | HL-60 20.4 µM | HOP-62 34.4 µM | HOP-92 24.3 µM | HT-29 20.8 µM | Hs-578T 30.6 µM | IGROV-1 15.8 µM | K562 19.1 µM | KM12 24.3 µM | LOX IMVI 19.8 µM | M14 36.1 µM | MCF7 29.2 µM | MDA-MB-231 23.7 µM | MDA-MB-435 26.1 µM | MDA-N 25.8 µM | MOLT-4 24.5 µM | Malme-3M 20.8 µM | NCI-H23 32.2 µM | NCI-H460 26.5 µM | NCI-H522 24.1 µM | NCI/ADR-RES > 100 µM | OVCAR-3 20.5 µM | OVCAR-4 20.8 µM | OVCAR-5 32.9 µM | OVCAR-8 26.2 µM | PC-3 22.4 µM | RPMI-8226 29.6 µM | RXF 393 19.9 µM | SF-268 34.2 µM | SF-295 28.6 µM | SF-539 13.7 µM | SK-MEL-28 33.7 µM | SK-MEL-2 21.1 µM | SK-MEL-5 29.6 µM | SK-OV-3 31.8 µM | SN12C 21.7 µM | SNB-19 38.4 µM | SNB-75 17.4 µM | SR 19.4 µM | SW-620 33.2 µM | T47D 25 µM | TK-10 26.2 µM | U-251 20.7 µM | UACC-257 18.3 µM | UACC-62 18.6 µM | UO-31 71.9 µM

Cc1cc2nc(N3C(=O)/C(=C/c4ccccc4S)N=C3c3ccccc3)sc2cc1C
inactive: 786-0 18.7 µM | A498 21.7 µM | A549 36.6 µM | ACHN 32.7 µM | BT-549 28.6 µM | CAKI-1 59.7 µM | CCRF-CEM 18.8 µM | COLO 205 30.6 µM | DU-145 58.9 µM | EKVX 27 µM | HCC 2998 31.8 µM | HCT-116 18.3 µM | HL-60 30.1 µM | HOP-62 88.1 µM | HOP-92 22.4 µM | HT-29 21 µM | Hs-578T 39.2 µM | IGROV-1 18.8 µM | K562 29.3 µM | KM12 34 µM | LOX IMVI 29.2 µM | M14 34 µM | MCF7 20 µM | MDA-MB-231 18.5 µM | MDA-MB-435 22.1 µM | MDA-N 11.6 µM | MOLT-4 15.4 µM | NCI-H460 26.5 µM | NCI/ADR-RES 26.7 µM | OVCAR-3 49.3 µM | OVCAR-4 43.1 µM | OVCAR-5 26.5 µM | OVCAR-8 46.5 µM | PC-3 18.5 µM | RPMI-8226 19.2 µM | RXF 393 29.3 µM | SF-268 40.8 µM | SF-295 27.4 µM | SF-539 56.6 µM | SK-MEL-28 54.2 µM | SK-MEL-2 18.2 µM | SK-MEL-5 29 µM | SK-OV-3 99.5 µM | SN12C 25.8 µM | SNB-19 55.8 µM | SNB-75 32.6 µM | SR 33.2 µM | SW-620 37.5 µM | T47D 54.1 µM | TK-10 58.1 µM | U-251 31.5 µM | UACC-257 23.3 µM | UACC-62 32 µM | UO-31 26.1 µM
32.7 µM: HCT-15

Clc1cc2nnn(C3CCCO3)c2cc1Cl (configuration not stated)
> 100 µM: HCT-15
inactive: 786-0 > 100 µM | A498 98.4 µM | A549 > 100 µM | BT-549 49.7 µM | CAKI-1 > 100 µM | CCRF-CEM > 100 µM | COLO 205 > 100 µM | DU-145 > 100 µM | EKVX 66.1 µM | HCC 2998 > 100 µM | HCT-116 > 100 µM | HL-60 > 100 µM | HOP-62 > 100 µM | HT-29 > 100 µM | Hs-578T 62.7 µM | IGROV-1 > 100 µM | K562 > 100 µM | M14 > 100 µM | MCF7 > 100 µM | MDA-MB-231 > 100 µM | MDA-MB-435 > 100 µM | MDA-N > 100 µM | MOLT-4 83.6 µM | Malme-3M > 100 µM | NCI-H226 > 100 µM | NCI-H23 60.1 µM | NCI-H460 > 100 µM | NCI-H522 > 100 µM | NCI/ADR-RES > 100 µM | OVCAR-3 > 100 µM | OVCAR-5 > 100 µM | OVCAR-8 > 100 µM | PC-3 > 100 µM | RXF 393 > 100 µM | SF-268 > 100 µM | SF-295 > 100 µM | SF-539 > 100 µM | SK-MEL-2 > 100 µM | SK-MEL-5 75.3 µM | SK-OV-3 > 100 µM | SN12C > 100 µM | SNB-75 20 µM | SR 45.8 µM | T47D > 100 µM | TK-10 > 100 µM | U-251 > 100 µM | UACC-257 > 100 µM | UACC-62 > 100 µM

COc1cc(/C=C/C(=O)N[C@@H]2C(=O)N3[C@@H]2SC(C)(C)[C@@H]3C(=O)O)ccc1O
> 100 µM: HCT-15
inactive: 786-0 > 100 µM | A498 > 100 µM | A549 > 100 µM | ACHN > 100 µM | BT-549 > 100 µM | CAKI-1 > 100 µM | CCRF-CEM > 100 µM | COLO 205 > 100 µM | DU-145 > 100 µM | EKVX > 100 µM | HCC 2998 > 100 µM | HCT-116 > 100 µM | HL-60 > 100 µM | HOP-62 > 100 µM | HOP-92 > 100 µM | HT-29 > 100 µM | Hs-578T > 100 µM | K562 > 100 µM | KM12 > 100 µM | LOX IMVI 75 µM | M14 > 100 µM | MCF7 > 100 µM | MDA-MB-231 > 100 µM | MDA-MB-435 > 100 µM | MDA-N > 100 µM | MOLT-4 > 100 µM | NCI-H226 > 100 µM | NCI-H23 > 100 µM | NCI-H460 > 100 µM | NCI-H522 > 100 µM | NCI/ADR-RES > 100 µM | OVCAR-3 > 100 µM | OVCAR-4 > 100 µM | OVCAR-5 > 100 µM | OVCAR-8 > 100 µM | PC-3 > 100 µM | RPMI-8226 > 100 µM | RXF 393 > 100 µM | SF-268 > 100 µM | SF-295 > 100 µM | SF-539 > 100 µM | SK-MEL-28 > 100 µM | SK-MEL-2 > 100 µM | SK-MEL-5 > 100 µM | SK-OV-3 > 100 µM | SN12C > 100 µM | SNB-19 > 100 µM | SNB-75 > 100 µM | SR > 100 µM | SW-620 > 100 µM | T47D > 100 µM | TK-10 > 100 µM | U-251 > 100 µM | UACC-257 > 100 µM | UACC-62 > 100 µM | UO-31 > 100 µM
